Results from patent US4175125A, “Method for treating methicillin resistant staphylococcus aureus” (Eli Lilly and Company, priority 1978, dated 1979).

Key:
[1] = tested on: Staphylococcus aureus cultures; experiment: Agar dilution MIC, Example 13 compound vs methicillin resistant Staphylococcus aureus; type: cell-based
Description: The table which follows gives the minimum inhibitory concentration (MIC) in micrograms of compound per milliliter of culture (μg/ml), in comparison with similar MIC values for the known antibiotics methicillin, cephalothin and cephaloridine against the same strains of bacteria.

[2] = tested on: Streptococcus pyogenes C203; experiment: MIC in broth against Streptococcus pyogenes C203; type: cell-based
Description: The MIC for the compound of Example 13 against Streptococcus pyogenes C203 in broth was 0.008 μg/ml.

[3] = tested on: C. freundii CF17; experiment: In vitro MIC in agar, additional microorganisms; type: cell-based; details: Citrobacter freundii
Description: (§1) The compound of Example 13 gave the following in vitro minimum inhibitory concentrations (MIC values), in microgram/milliliter of agar (μg/ml.) against the following additional microorganisms

[4] = tested on: E. coli EC14; experiment: In vitro MIC in agar, additional microorganisms; type: cell-based; details: Escherichia coli
Description: as §1

[5] = tested on: E. aerogenes EB17; experiment: In vitro MIC in agar, additional microorganisms; type: cell-based; details: Klebsiella aerogenes
Description: as §1

[6] = tested on: S. typhimurium; experiment: In vitro MIC in agar, additional microorganisms; type: cell-based; details: Salmonella enterica
Description: as §1

[7] = tested on: T. mentagrophytes 27; experiment: In vitro MIC in agar, additional microorganisms; type: cell-based; details: Trichophyton mentagrophytes
Description: as §1

[8] = tested on: P. morganii, indole positive; experiment: In vitro MIC in agar, additional microorganisms; type: cell-based; details: Morganella morganii
Description: as §1

[9] = tested on: B. bronchiseptica; experiment: In vitro MIC in agar, additional microorganisms; type: cell-based; details: Bordetella bronchiseptica
Description: as §1

[10] = tested on: E. amylovora; experiment: In vitro MIC in agar, additional microorganisms; type: cell-based; details: Erwinia amylovora
Description: as §1

[11] = tested on: P. aeroginosa X239; experiment: In vitro MIC in agar, additional microorganisms; type: cell-based
Description: as §1

[12] = tested on: C. ulmi; experiment: In vitro MIC in agar, additional microorganisms; type: cell-based
Description: as §1

[13] = tested on: S. marcescens SE3; experiment: In vitro MIC in agar, additional microorganisms; type: cell-based; details: Serratia marcescens
Description: as §1

[14] = tested on: S. aureus; experiment: In vitro MIC in agar, additional microorganisms; type: cell-based; details: Staphylococcus aureus
Description: as §1

[15] = tested on: S. facalis X66; experiment: In vitro MIC in agar, additional microorganisms; type: cell-based
Description: as §1

[16] = tested on: C. tropicalis A17; experiment: In vitro MIC in agar, additional microorganisms; type: cell-based; details: Candida tropicalis
Description: as §1

[17] = tested on: A. flavus; experiment: In vitro MIC in agar, additional microorganisms; type: cell-based; details: Aspergillus flavus
Description: as §1

[18] = tested on: H. pneumoniae KL14; experiment: In vitro MIC in agar, additional microorganisms; type: cell-based; details: Klebsiella pneumoniae
Description: as §1

[19] = tested on: P. solenaecarum X185; experiment: In vitro MIC in agar, additional microorganisms; type: cell-based
Description: as §1

[20] = tested on: S. typhosa SA12; experiment: In vitro MIC in agar, additional microorganisms; type: cell-based
[21] = water
[22] = physchem; details: water

Work on Cc1nnc(SCC2=C(C(=O)[O-])N3C(=O)C(NC(=O)CSc4ccc(F)c(Cl)c4)[C@H]3SC2)s1.[Na+] (stereo partly shown) yielded an MIC ([1]; culture 3055 (control), Trypticase Soy Agar with 4.5% NaCl added (5% NaCl)) of 0.03 µg/mL, an MIC ([1]; culture 3055 (control), Trypticase Soy Agar, 0.5% NaCl) of 0.03 µg/mL and an MIC ([1]; culture 3130, Trypticase Soy Agar with 4.5% NaCl added (5% NaCl)) of 0.25 µg/mL. For the same compound, the MIC ([1]; culture 3130, Trypticase Soy Agar, 0.5% NaCl) was 0.5 µg/mL, the MIC ([1]; culture 3131, Trypticase Soy Agar with 4.5% NaCl added (5% NaCl)) was 0.25 µg/mL and the MIC ([1]; culture 3131, Trypticase Soy Agar, 0.5% NaCl) was 0.25 µg/mL. It also gave an MIC ([1]; culture 3132, Trypticase Soy Agar with 4.5% NaCl added (5% NaCl)) of 0.13 µg/mL, an MIC ([1]; culture 3132, Trypticase Soy Agar, 0.5% NaCl) of 0.13 µg/mL and an MIC ([1]; culture 3133, Trypticase Soy Agar with 4.5% NaCl added (5% NaCl)) of 0.13 µg/mL. For the same compound, the MIC ([1]; culture 3133, Trypticase Soy Agar, 0.5% NaCl) was 0.13 µg/mL, the MIC ([1]; culture 3134, Trypticase Soy Agar with 4.5% NaCl added (5% NaCl)) was 0.25 µg/mL and the MIC ([1]; culture 3134, Trypticase Soy Agar, 0.5% NaCl) was 1 µg/mL. For the same compound, the MIC ([1]; culture 3135, Trypticase Soy Agar with 4.5% NaCl added (5% NaCl)) was 0.5 µg/mL, the MIC ([1]; culture 3135, Trypticase Soy Agar, 0.5% NaCl) was 0.5 µg/mL and the MIC ([1]; culture 3136, Trypticase Soy Agar with 4.5% NaCl added (5% NaCl)) was 0.5 µg/mL. For the same compound, the MIC ([1]; culture 3136, Trypticase Soy Agar, 0.5% NaCl) was 0.25 µg/mL, the MIC ([1]; culture 3137, Trypticase Soy Agar with 4.5% NaCl added (5% NaCl)) was 1 µg/mL and the MIC ([1]; culture 3137, Trypticase Soy Agar, 0.5% NaCl) was 1 µg/mL. The MIC ([1]; culture 3138, Trypticase Soy Agar with 4.5% NaCl added (5% NaCl)) was 0.5 µg/mL, the MIC ([1]; culture 3138, Trypticase Soy Agar, 0.5% NaCl) was 1 µg/mL and the MIC ([1]; culture 3139, Trypticase Soy Agar with 4.5% NaCl added (5% NaCl)) was 0.03 µg/mL. For the same compound, the MIC ([1]; culture 3139, Trypticase Soy Agar, 0.5% NaCl) was 0.25 µg/mL, the MIC ([1]; culture H232 (control), Trypticase Soy Agar with 4.5% NaCl added (5% NaCl)) was 0.06 µg/mL and the MIC ([1]; culture H232 (control), Trypticase Soy Agar, 0.5% NaCl) was 0.06 µg/mL. For the same compound, the MIC ([1]; culture Havarmak 1136501, Trypticase Soy Agar with 4.5% NaCl added (5% NaCl)) was 1 µg/mL, the MIC ([1]; culture Havarmak 1136501, Trypticase Soy Agar, 0.5% NaCl) was 0.5 µg/mL and the MIC ([1]; culture S 61, Trypticase Soy Agar with 4.5% NaCl added (5% NaCl)) was 0.5 µg/mL. It also gave an MIC ([1]; culture S 61, Trypticase Soy Agar, 0.5% NaCl) of 0.5 µg/mL, an MIC ([1]; culture Seattle 966, Trypticase Soy Agar with 4.5% NaCl added (5% NaCl)) of 0.06 µg/mL and an MIC ([1]; culture Seattle 966, Trypticase Soy Agar, 0.5% NaCl) of 0.25 µg/mL. For the same compound, the MIC [2] was 0.008 µg/mL, the MIC [3] was over 128 µg/mL and the MIC [4] was 64 µg/mL. For the same compound, the MIC [5] was 128 µg/mL, the MIC [6] was 128 µg/mL and the MIC [7] was over 128 µg/mL. For the same compound, the MIC [8] was over 128 µg/mL, the MIC [9] was over 128 µg/mL and the MIC [10] was 64 µg/mL. It also gave an MIC [11] of over 128 µg/mL, an MIC [12] of over 128 µg/mL and an MIC [13] of over 128 µg/mL. It also gave an MIC ([14]; S. aureus 3055 (penicillin G susceptible)) of 0.031 µg/mL, an MIC ([14]; S. aureus 3074 (Pen G. resist.)) of 0.062 µg/mL and an MIC [15] of 400 µg/mL. It also gave an MIC [16] of over 128 µg/mL, an MIC [17] of over 128 µg/mL and an MIC [18] of 64 µg/mL. For the same compound, the MIC [19] was over 128 µg/mL, the MIC [20] was 32 µg/mL and the “solubility upon warming (in words)” value [21] was “increases”. The solubility [22] was over 100 mg/mL.
